Laboratory results taken from US9090632B2, “Bicyclic oxazole and thiazole compounds and their use as allosteric modulators of mGluR5 receptors” (Vanderbilt University, priority 2010, dated 2015).

What was measured:
human mGluR5 = human mGluR5 (Homo sapiens, UniProt P41594); experiment: Cell-based functional Ca2+ mobilization assay, potentiation of glutamate EC20 response (H10H cell-line); details: H10H cell-line expressing recombinant human mGluR5; for Emax: in presence of glutamate EC20, normalized to maximal glutamate response; for EC50: potentiation in presence of glutamate EC20
Chain of human mGluR5 (P41594 21-1180 isoform P41594-2 limits assumed): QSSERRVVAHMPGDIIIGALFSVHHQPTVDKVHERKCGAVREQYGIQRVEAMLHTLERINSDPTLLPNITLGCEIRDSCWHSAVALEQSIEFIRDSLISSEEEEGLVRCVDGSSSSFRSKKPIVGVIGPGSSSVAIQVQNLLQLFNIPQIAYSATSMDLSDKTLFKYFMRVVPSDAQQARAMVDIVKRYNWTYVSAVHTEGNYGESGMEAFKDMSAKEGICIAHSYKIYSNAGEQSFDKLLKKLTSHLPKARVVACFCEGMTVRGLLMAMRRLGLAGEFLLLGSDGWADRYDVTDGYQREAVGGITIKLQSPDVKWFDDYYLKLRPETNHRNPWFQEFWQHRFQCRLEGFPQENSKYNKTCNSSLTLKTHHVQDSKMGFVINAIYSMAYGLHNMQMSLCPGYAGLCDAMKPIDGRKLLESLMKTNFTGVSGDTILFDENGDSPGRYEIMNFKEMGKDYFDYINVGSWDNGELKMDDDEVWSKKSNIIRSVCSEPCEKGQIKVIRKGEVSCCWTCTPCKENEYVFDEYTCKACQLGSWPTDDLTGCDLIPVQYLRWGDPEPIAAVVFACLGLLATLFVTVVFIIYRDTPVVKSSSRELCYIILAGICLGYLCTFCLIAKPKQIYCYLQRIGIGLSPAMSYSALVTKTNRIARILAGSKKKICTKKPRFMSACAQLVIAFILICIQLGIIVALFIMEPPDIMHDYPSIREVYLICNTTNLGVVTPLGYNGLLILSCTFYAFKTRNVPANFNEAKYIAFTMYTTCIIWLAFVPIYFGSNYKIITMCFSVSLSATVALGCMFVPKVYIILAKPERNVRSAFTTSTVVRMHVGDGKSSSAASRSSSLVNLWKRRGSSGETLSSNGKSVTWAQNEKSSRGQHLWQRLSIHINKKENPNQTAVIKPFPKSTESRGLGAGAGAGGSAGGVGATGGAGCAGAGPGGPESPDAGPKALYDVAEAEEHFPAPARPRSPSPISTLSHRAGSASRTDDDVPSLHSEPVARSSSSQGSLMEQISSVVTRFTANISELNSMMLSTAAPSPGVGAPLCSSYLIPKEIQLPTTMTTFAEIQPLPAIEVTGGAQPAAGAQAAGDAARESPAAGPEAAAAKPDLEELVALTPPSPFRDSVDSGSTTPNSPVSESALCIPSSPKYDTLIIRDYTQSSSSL
Procedure, shortened: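 H10H HEK293A cells expressing human mGluR5a were loaded with 2 μM fluo-4 AM in HBSS/20 mM HEPES/2.5 mM probenecid pH 7.4 and read on an FDSS 6000. Compound was added after a ~3 s baseline, followed 2.3 min later by an EC20 glutamate concentration; potentiation EC50 came from non-linear curve fitting.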

[1] = system: amphetamine-induced hyperlocomotion; experiment: Reversal of amphetamine-induced hyperlocomotion; type: in vivo, rat; details: male Sprague-Dawley rats; test compound po in 20% HP-β-CD; amphetamine sulfate 1 mg/kg sc
Description: Locomotor activity was assessed as mean distance traveled (cm) in standard 16×16 photocell testing chambers measuring 43.2 cm (Length)×43.2 cm (Width)×30.5 cm (Height) (Med Associates, St. Albans, Vt.). Animals were habituated to individual activity chambers for at least 30 min prior to drug administration. Following administration of drug or vehicle, activity was recorded for a 90 minute time period. Data was expressed as the mean (±SEM) distance traveled recorded in 5 min intervals over the test period. The data was analyzed using repeated measures analysis of variance (ANOVA) followed by post-hoc testing using Dunnett's test, when appropriate. A difference was considered significant when p≦0.05. […]
The animals were habituated in Smart Open Field locomotor activity test chambers (Hamilton-Kinder, San Diego, Calif.) with 16×16 photobeams to automatically record locomotor activity for 30 min and then dosed with vehicle or test compound. […] At 60 min, all rats were injected subcutaneously with 1 mg/kg amphetamine or vehicle and then monitored for an additional 60 min. Animals are monitored for a total of 120 minutes. Data are expressed as changes in ambulation defined as total number of beam breaks per 5 min periods.
The data for the dose-response studies were analyzed by a between-group analysis of variance. […]

Emax (human mGluR5) [%]	EC50 (human mGluR5) [µM]	melting point [°C]	SMILES	reversal of amphetamine-induced hyperlocomotion [1]
84	0.38	–	O=C(c1ccc(F)cc1)N1CCc2nc(COc3ccccc3)oc2C1 [Example B1, 5-[(4-fluorophenyl)carbonyl]-2-(phenoxymethyl)-4,5,6,7-tetrahydro[1,3]oxazolo[5,4-c]pyridine]	Dose-dependent results for reversal of amphetamine-induced hyperlocomotion
44	> 10	> 300	O=C(c1ccnnc1)N1CCc2nc(COc3ccccc3)oc2C1 [Example B150]	–
14	> 30.2	198.1	O=C(c1ccc2[nH]cnc2c1)N1CCc2nc(COc3ccccc3)oc2C1 [Example B156]	–
